One data set has as its target T1, murine sEH (Mus musculus, UniProt P34914).
T1 construct: made in house; host or cells: baculovirus expression system (insect cells implied)
T1 sequence (P34914 1-554): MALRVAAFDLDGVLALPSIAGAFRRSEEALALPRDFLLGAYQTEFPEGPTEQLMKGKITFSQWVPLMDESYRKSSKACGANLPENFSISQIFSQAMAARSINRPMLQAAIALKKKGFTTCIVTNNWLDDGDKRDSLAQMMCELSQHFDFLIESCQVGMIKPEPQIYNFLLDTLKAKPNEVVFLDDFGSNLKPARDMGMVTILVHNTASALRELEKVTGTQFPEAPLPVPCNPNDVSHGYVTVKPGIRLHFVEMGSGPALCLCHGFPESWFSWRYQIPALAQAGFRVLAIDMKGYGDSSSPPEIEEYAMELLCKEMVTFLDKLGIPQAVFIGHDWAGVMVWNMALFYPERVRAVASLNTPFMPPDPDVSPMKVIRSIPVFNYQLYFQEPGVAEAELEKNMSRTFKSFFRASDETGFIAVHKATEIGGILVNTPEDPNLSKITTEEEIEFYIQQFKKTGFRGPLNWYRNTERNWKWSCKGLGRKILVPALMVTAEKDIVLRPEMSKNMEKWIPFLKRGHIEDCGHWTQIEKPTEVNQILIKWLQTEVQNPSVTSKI
Description: fluorescent-based sEH inhibition assay, recombinant mouse sEH. The class given is biochemical. The settings on record: baculovirus expressed recombinant mouse sEH, average of three replicates. Here is the method:
(§1) The potency of all the new compounds as inhibitors of the human and murine sEH was tested using a previously reported sensitive fluorescent-based assay using baculovirus expressed recombinant human and mouse sEH [28].

A short description of data set [1]: microsomal stability, mouse microsomes. Format: in vitro ADME. The settings on record: pooled murine microsomes, pH 7.4; 60 min incubation with mouse microsomes, NADPH, 37 °C. Here is the method:
(§2) The human and murine pooled microsomes employed were purchased from Tebu-Xenotech (Barcelona, Spain). The compound was incubated at 37 °C with the microsomes in a 50 mM phosphate buffer (pH = 7.4) containing 3 mM MgCl2, 1 mM NADP, 10 mM glucose-6-phosphate and 1 U/mL glucose-6-phosphate-dehydrogenase. Samples (75 µL) were taken from each well at 0, 10, 20, 40 and 60 min and transferred to a plate containing 4 °C 75 µL acetonitrile and 30 µL of 0.5% formic acid in water were added for improving the chromatographic conditions. The plate was centrifuged (46000 g, 30 min) and supernatants were taken and analyzed in a UPLC-MS/MS (Xevo-TQD, Waters) by employing a BEH C18 column and an isocratic gradient of 0.1% formic acid in water: 0.1% formic acid acetonitrile (60:40). The metabolic stability of the compounds was calculated from the logarithm of the remaining compounds at each of the time points studied.

A further data set deals with T2, human sEH (Homo sapiens, UniProt P34913).
T2 construct: made in house; host or cells: baculovirus expression system (insect cells implied)
T2 sequence (P34913 1-555): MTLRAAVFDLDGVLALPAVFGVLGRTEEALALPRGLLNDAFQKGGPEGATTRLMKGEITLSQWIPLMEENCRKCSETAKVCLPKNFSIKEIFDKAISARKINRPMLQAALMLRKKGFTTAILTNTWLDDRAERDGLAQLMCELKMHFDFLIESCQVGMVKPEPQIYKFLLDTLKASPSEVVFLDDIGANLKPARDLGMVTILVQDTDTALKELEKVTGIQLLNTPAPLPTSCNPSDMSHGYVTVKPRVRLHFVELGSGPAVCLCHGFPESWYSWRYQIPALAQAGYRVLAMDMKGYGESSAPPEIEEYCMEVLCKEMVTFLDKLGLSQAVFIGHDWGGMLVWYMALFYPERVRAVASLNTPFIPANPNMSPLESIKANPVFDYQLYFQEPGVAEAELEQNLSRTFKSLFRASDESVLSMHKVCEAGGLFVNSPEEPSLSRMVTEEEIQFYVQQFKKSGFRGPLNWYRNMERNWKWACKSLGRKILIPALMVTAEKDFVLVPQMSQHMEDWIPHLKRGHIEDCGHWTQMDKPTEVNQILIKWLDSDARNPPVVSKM
As to the kind of experiment: fluorescent-based sEH inhibition assay, recombinant human sEH. Format: biochemical. The settings on record: baculovirus expressed recombinant human sEH, average of three replicates. Here is the method:
as §1

Data set [2] is described as follows: microsomal stability, human microsomes. The class given is in vitro ADME. The settings on record: pooled human microsomes, pH 7.4; 60 min incubation with human microsomes, NADPH, 37 °C. Here is the method:
as §2

Data set [3] concerns microglial BV2 cells activated with LPS. Description: nitric oxide generation (nitrite, Griess) in LPS-activated BV2 microglial cells. Format: cell-based. The settings on record: compound at 100 µM, LPS, 24 h, percentage of LPS value. Here is the method:
Inflammatory changes were determined by the measure of nitric oxide generation, as the endpoint of iNOS activation, in microglial BV2 cells. BV2 cells (HyperCLDB, Banca Biologica e Cell Factory, ICLC ATL 03001) were grown in RPMI 1640 medium, supplemented with L-glutamine 2 mM, gentamycin 50 µM and 10% FBS. For experiments, cells were seeded in 96-well plates at 2 × 10^5 cells/mL, 100 µL/well. […] After 1 h of incubation, the cells were treated with the pro-inflammatory chemical LPS (0.1 μg/mL or 1 μg/mL; strain E. coli […], Sigma-Aldrich, L-2654, batch #120M4028) and further incubated for 24 h. TPPU at 100 µM was also assayed as a reference anti-inflammatory compound. DMSO 0.1% was used as vehicle. Cells were maintained at 37 °C in a humidified incubator with 5% CO2 throughout the procedures. Nitric oxide released to the culture medium was measured by the colorimetric Griess reaction that detects nitrite (NO2^–), a stable reaction product of nitric oxide and molecular oxygen. Briefly, 50 µL of conditioned medium were incubated with 50 µL of Griess reagent for 10 min at room temperature. Optical density was measured at 540 nm. Nitrite concentration was determined from a sodium nitrite standard curve. Results were normalized by cell protein content in the well and expressed as a percentage of the average maximal values given by the pro-inflammatory agent (LPS 1 µg/mL). Each treatment was performed in 3–5 wells and the whole experiment was repeated 3–4 times in cultures of different cell passage. Data were analyzed by ANOVA followed by Tukey’s multiple comparisons test.

On the set-up of data set [4]: method as in PMID 33945278. The settings on record: Figure 2 legend; cited from earlier work.

For the molecule `CC(=O)N1CCC(CC(=O)NC23CC4CC(C)(CC(C2)c2ccccc24)C3)CC1` [6a, 2-(1-Acetylpiperidin-4-yl)-N-(9-methyl-5,6,8,9,10,11-hexahydro-7H-5,9:7,11-dimethanobenzo[9]annulen-7-yl)acetamide], the IC50 came to 0.4 nM on murine sEH and 34.5 nM on human sEH. For the same molecule, the values for the share remaining at 1 h in data set [1] and in data set [2] were 0% and 0.3%, respectively.

Regarding `CC(C)S(=O)(=O)N1CCC(CC(=O)NC23CC4CC(C)(CC(C2)c2ccccc24)C3)CC1` [6b, 2-[1-(Isopropylsulfonyl)piperidin-4-yl]-N-(9-methyl-5,6,8,9,10,11-hexahydro-7H-5,9:7,11-dimethanobenzo[9]annulen-7-yl)acetamide], the IC50 on murine sEH came out at 0.4 nM; at human sEH, 30.2 nM. The amount remaining at 1 h in data set [1] and in data set [2] was 0% throughout.

As to `CC(C)S(=O)(=O)N1CCC(CC(=O)NC23CC4CC(F)(CC(C2)c2ccccc24)C3)CC1` [6c, N-(9-Fluoro-5,6,8,9,10,11-hexahydro-7H-5,9:7,11-dimethanobenzo[9]annulen-7-yl)-2-(1-(isopropylsulfonyl)piperidin-4-yl)acetamide], the melting point is 192 to 193 °C. Moreover, the IC50 on murine sEH turned out to be 0.4 nM. The amount remaining at 1 h in data set [1] came to 5.1%. Moreover, the IC50 on human sEH came to 1.6 nM. The fraction remaining at 1 h in data set [2] amounted to 5.5%.

The molecule `CC(C)S(=O)(=O)N1CCC(CC(=O)NC23CC4CC(Cl)(CC(C2)c2ccccc24)C3)CC1` [6d, N-(9-Chloro-5,6,8,9,10,11-hexahydro-7H-5,9:7,11-dimethanobenzo[9]annulen-7-yl)-2-(1-(isopropylsulfonyl)piperidin-4-yl)acetamide] registered a melting point of 163 to 164 °C. For the same molecule, the IC50 on murine sEH was found to be 0.4 nM. Further, the share remaining at 1 h in data set [1] worked out at 1.4%. Moreover, at human sEH, the IC50 was determined as 1 nM. In addition, in data set [2], the amount remaining at 1 h worked out at 7%.

`CC(C)S(=O)(=O)N1CCC(CC(=O)NC23CC4CC(C2)c2ccccc2C(C4)C3)CC1` [6e, N-(5,6,8,9,10,11-Hexahydro-7H-5,9:7,11-dimethanobenzo[9]annulen-7-yl)-2-(1-(isopropylsulfonyl)piperidin-4-yl)acetamide] came in with a melting point of 136 to 137 °C. The IC50 at murine sEH turned out to be 0.5 nM. In addition, the amount remaining at 1 h in data set [1] is 0.2%. On human sEH, the IC50 is 2.8 nM. In addition, in data set [2], the amount remaining at 1 h came out at 0.6%.

In turn, `[2H]C12CC3CC(NC(=O)CC4CCN(S(=O)(=O)C(C)C)CC4)(CC(C1)c1ccccc13)C2` [6f, N-(5,6,8,9,10,11-Hexahydro-7H-5,9:7,11-dimethanobenzo[9]annulen-7-yl-9-d)-2-(1-(isopropylsulfonyl)piperidin-4-yl)acetamide] yielded a melting point of 138 to 139 °C. Besides, on murine sEH, the IC50 was determined as 0.4 nM. In data set [1], this molecule yielded a fraction remaining at 1 h of 0.5%. The IC50 on human sEH is 2.4 nM. Also, the fraction remaining at 1 h in data set [2] amounted to 1.3%.

`CC12CC3CC(NC(=O)CC4CCN(Cc5ccccc5)CC4)(CC(C1)c1ccccc13)C2` [6g, 2-(1-Benzylpiperidin-4-yl)-N-(9-methyl-5,6,8,9,10,11-hexahydro-7H-5,9:7,11-dimethanobenzo[9]annulen-7-yl)acetamide]: the IC50 at murine sEH was found to be 3.3 nM; at human sEH, 37.5 nM. Further, the share remaining at 1 h in data set [1] and in data set [2] was 0.1% throughout.

Regarding `O=C(CC1CCN(Cc2ccccc2)CC1)NC12CC3CC(F)(CC(C1)c1ccccc13)C2` [6h, 2-(1-Benzylpiperidin-4-yl)-N-(9-fluoro-5,6,8,9,10,11-hexahydro-7H-5,9:7,11-dimethanobenzo[9]annulen-7-yl)acetamide], the melting point lay within 164 to 165 °C. On murine sEH, the IC50 turned out to be 12.9 nM. This molecule came in with an amount remaining at 1 h in data set [1] of 0.1%. The IC50 at human sEH was found to be 21.4 nM. In data set [2], this molecule had an amount remaining at 1 h of 0.3%.

`CC(=O)c1ccc(N2CCC(CC(=O)NC34CC5CC(F)(CC(C3)c3ccccc35)C4)CC2)cc1` [10a, 2-(1-(4-Acetylphenyl)piperidin-4-yl)-N-(9-fluoro-5,6,8,9,10,11-hexahydro-7H-5,9:7,11-dimethanobenzo[9]annulen-7-yl)acetamide] gave a melting point of 229 to 230 °C. In addition, the IC50 on murine sEH stood at 0.7 nM. Further, the share remaining at 1 h in data set [1] was determined as 0.1%. Besides, the IC50 on human sEH turned out to be 0.6 nM. Besides, in data set [2], the amount remaining at 1 h was found to be 0.1%.

With `N#Cc1ccc(N2CCC(CC(=O)NC34CC5CC(F)(CC(C3)c3ccccc35)C4)CC2)cc1` [10b, 2-(1-(4-Cyanophenyl)piperidin-4-yl)-N-(9-fluoro-5,6,8,9,10,11-hexahydro-7H-5,9:7,11-dimethanobenzo[9]annulen-7-yl)acetamide], the melting point was in the range of 180 to 181 °C. For the same molecule, on murine sEH, the IC50 was 0.4 nM. In data set [1], this molecule yielded a share remaining at 1 h of 0.1%. For the same molecule, the IC50 at human sEH came to 3.4 nM. The molecule also registered an amount remaining at 1 h in data set [2] of 0%.

`O=C(CC1CCN(c2ccc(C(=O)O)cc2C2CC2)CC1)NC12CC3CC(F)(CC(C1)c1ccccc13)C2` [10d, 3-Cyclopropyl-4-(4-(2-((9-fluoro-5,6,8,9,10,11-hexahydro-7H-5,9:7,11-dimethanobenzo[9]annulen-7-yl)amino)-2-oxoethyl)piperidin-1-yl)benzoic Acid] had a melting point of 190 to 191 °C. Also, the IC50 at murine sEH turned out to be 0.2 nM. In data set [1], this molecule had a fraction remaining at 1 h of 2%. Further, the IC50 at human sEH was 0.4 nM. In data set [2], this molecule showed a fraction remaining at 1 h of 11%.

For `O=C(CC1CCN(c2ccc(C(=O)O)cc2)CC1)NC12CC3CC(Cl)(CC(C1)c1ccccc13)C2` [10e], the figures for the IC50 on murine sEH and on human sEH were 0.7 nM and 1.7 nM, respectively. In addition, the fraction remaining at 1 h in data set [1] was found to be 6%; in data set [2], 52%.

On to `CCC(=O)N1CCC(NC(=O)Nc2ccc(OC(F)(F)F)cc2)CC1` [TPPU, reference compound], for which, in data set [3], the “nitric oxide release induced by LPS, reduced to” value is given as “approximately 50%”.

In the case of `CC(=O)N1CCC(NC(=O)NC23CC4CC(C)(CC(C2)c2ccccc24)C3)CC1` [compound 1, reference compound], the amount remaining at 1 h in data set [1] and in data set [2] was 1% each time. Besides, in data set [4], the “microsomal stability (% remaining at 1 h) mouse” value is on record as 0.5%.

The values are drawn from paper PMC8703317, “2-(Piperidin-4-yl)acetamides as Potent Inhibitors of Soluble Epoxide Hydrolase with Anti-Inflammatory Activity” (Pharmaceuticals, 2021).
